Broadly, the IC50 is the concentration that inhibits the measured activity by half.

For assay [1], the system named is spontaneously hypertensive rat, renal hypertensive rat and deoxycortisone acetate salt hypertensive rat models. To be noted: cited from earlier work.
The test system of assay [2] is neointimal formation in rats. The note with it: balloon injury model; cited from earlier work.
In assay [3] the test system is Dahl salt-sensitive rats. The note with it: congestive heart failure; cited from earlier work.
Assay [4] has as its system IL-1 beta-induced coronary stenosis. To be noted: porcine, long term treatment; cited from earlier work.
Assay [5] deals with rat stroke model. The note with it: cited from earlier work.
For assay [6], the target named is T1, ROCKII (1-543) (Homo sapiens, UniProt O75116). Nature of the assay: IMAP Assay (fluorescence polarization, FAM S6 peptide). The format is biochemical. The arrangement: 3 nM ROCKII (1-543) diluted in kinase reaction buffer. The note with it: IMAP FP, 1 nM ROCKII (1-543), 100 μM ATP; read-out: Assay 2 IC50. (In general: Polarisation of emitted light reports the rotation of a fluorescent probe.)
Target sequence in this assay (O75116 1-543, species assumed): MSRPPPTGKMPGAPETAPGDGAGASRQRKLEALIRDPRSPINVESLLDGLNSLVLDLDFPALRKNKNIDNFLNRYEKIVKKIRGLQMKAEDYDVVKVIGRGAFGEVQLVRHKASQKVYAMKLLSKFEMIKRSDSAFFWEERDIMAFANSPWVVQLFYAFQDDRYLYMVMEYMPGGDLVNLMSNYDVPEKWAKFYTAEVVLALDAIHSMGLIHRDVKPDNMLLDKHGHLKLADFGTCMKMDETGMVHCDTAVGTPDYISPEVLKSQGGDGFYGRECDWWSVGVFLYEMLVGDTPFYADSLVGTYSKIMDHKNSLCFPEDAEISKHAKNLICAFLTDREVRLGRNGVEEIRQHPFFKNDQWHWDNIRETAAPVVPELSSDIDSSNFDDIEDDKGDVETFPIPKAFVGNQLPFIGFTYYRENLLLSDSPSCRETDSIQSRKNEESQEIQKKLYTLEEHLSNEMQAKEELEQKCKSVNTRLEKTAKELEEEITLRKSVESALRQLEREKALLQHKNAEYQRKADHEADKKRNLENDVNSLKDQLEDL

For assay [7], the target named is T1, ROCKII (1-543). In words: Luciferin-Luciferase Assay (PKLight ATP detection). The format is biochemical. The note with it: 7.5 nM ROCKII (1-543), 750 nM ATP. The arrangement: ROCKII (1-543) (62,408 Da) was diluted in assay buffer.
Target sequence in this assay (O75116 1-543): as the sequence (O75116 1-543, species assumed) above

As for `C[C@@H](N)[C@H]1CC[C@H](C(=O)Nc2ccncc2)CC1` [Compound Y-27632, Y-27632], the “effect on blood pressure in control rats” value in assay [1] (control rats) is “only a minor effect”. The “blood pressure in three rat models of hypertension” value in assay [1] (spontaneously hypertensive, renal hypertensive, deoxycortisone acetate salt hypertensive rats) is listed as “significantly decrease blood pressure”. Besides, the neointimal formation result in assay [2] is on record as “inhibited neointimal formation”. Moreover, in assay [3], the “ventricular hypertrophy and function” value is “improve ventricular hypertrophy and function”.
Regarding `O=S(=O)(c1cccc2cnccc12)N1CCCNCC1` [fasudil], in assay [4], the coronary constrictive remodeling entry is “promote a regression of coronary constrictive remodeling” and the coronary stenosis result is “progressively reduce coronary stenosis”. Also, in assay [5], the “infarct size and neurologic deficit” value is “reduce both the infarct size and neurologic deficit”.
As for `C[C@@H]1CN(C2CCc3nc(NC(=O)c4cccc(Cn5cc(-c6ccc(C#N)cc6)cn5)c4)sc3C2)C[C@H](C)O1` (stereo partly drawn) [Compound 26, 3-[4-(4-Cyano-phenyl)-pyrazol-1-ylmethyl]-N-[6-((2R,6S)-2,6-dimethyl-morpholin-4-yl)-4,5,6,7-tetrahydro-benzothiazol-2-yl]-benzamide], the IC50 in assay [6] amounted to 3.9 nM; in assay [7], 4.3 nM.
In the case of `COCCN(C)[C@H]1CCc2nc(NC(=O)c3cccc(Cn4cc(-c5ccc(C#N)cc5)nn4)c3)sc2C1` [Compound 49, 3-[4-(4-Cyano-phenyl)-[1,2,3]triazol-1-ylmethyl]-N-{(S)-6-[(2-methoxy-ethyl)-methyl-amino]-4,5,6,7-tetrahydro-benzothiazol-2-yl}-benzamide], the figures for the IC50 in assay [6] and in assay [7] were 0.73 nM and 1.7 nM, respectively.

Values taken from US9000154B2, “Rho kinase inhibitors” (Boehringer Ingelheim International GmbH, priority 2010, dated 2015).
